Experiments:
Experiment in all cases: relative viability (nuclei count vs DMSO), 5 days (fraction); higher = more cells survive
ABC-1 = system: ABC-1
Outline: (§1)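 Cells from lung cancer lines were seeded into 1536-well plates and, one day later, dosed by pin tool. Treatments were either a single drug or a fixed dose of an anchor drug with five library-drug doses (not always all listed) in √10 steps. After 5 days, nuclei were stained in a one-step fixation (final 0.05% Triton X-100, 1% formaldehyde, 1 ug/ml Hoechst) and counted on 4× images, and relative viability is the treated-to-vehicle nuclei ratio, as the median of duplicate plates.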

BEN = system: BEN
Outline: as §1

EPLC-272H = system: EPLC-272H
Outline: as §1

HCC-827 = system: HCC-827
Outline: as §1

HOP-62 = system: HOP-62
Outline: as §1

LU99A = system: LU99A
Outline: as §1

NCI-H1355 = system: NCI-H1355
Outline: as §1

NCI-H1666 = system: NCI-H1666
Outline: as §1

NCI-H1792 = system: NCI-H1792
Outline: as §1

NCI-H1975 = system: NCI-H1975
Outline: as §1

NCI-H2170 = system: NCI-H2170
Outline: as §1

NCI-H23 = system: NCI-H23
Outline: as §1

NCI-H2405 = system: NCI-H2405
Outline: as §1

NCI-H3122 = system: NCI-H3122
Outline: as §1

NCI-H322M = system: NCI-H322M
Outline: as §1

NCI-H358 = system: NCI-H358
Outline: as §1

NCI-H520 = system: NCI-H520
Outline: as §1

NCI-H596 = system: NCI-H596
Outline: as §1

NCI-H647 = system: NCI-H647
Outline: as §1

NCI-H727 = system: NCI-H727
Outline: as §1

NCI-H838 = system: NCI-H838
Outline: as §1

PC-14 = system: PC-14
Outline: as §1

UMC-11 = system: UMC-11
Outline: as §1

O=C(O)CCCCC(CCSCc1ccccc1)SCc1ccccc1 (stereo not given) [CPI-613] + Cc1nc(NC(=O)N2CCC[C@H]2C(N)=O)sc1-c1ccnc(C(C)(C)C(F)(F)F)c1 [Alpelisib] (partner 2 µM)
relative viability (ABC-1; first compound 5 µM): 1.02
relative viability (ABC-1; first compound 15.81 µM): 1.2
relative viability (ABC-1; first compound 50 µM): 1.26
relative viability (ABC-1; first compound 158.11 µM): 0.39
relative viability (ABC-1; first compound 500 µM): 0.223
relative viability (BEN; first compound 5 µM): 0.929
relative viability (BEN; first compound 15.81 µM): 0.949
relative viability (BEN; first compound 50 µM): 0.969
relative viability (BEN; first compound 158.11 µM): 0.831
relative viability (BEN; first compound 500 µM): 0.858
relative viability (EPLC-272H; first compound 5 µM): 0.95
relative viability (EPLC-272H; first compound 15.81 µM): 0.813
relative viability (EPLC-272H; first compound 50 µM): 0.94
relative viability (EPLC-272H; first compound 158.11 µM): 0.923
relative viability (EPLC-272H; first compound 500 µM): 1.04
relative viability (HCC-827; first compound 5 µM): 0.972
relative viability (HCC-827; first compound 15.81 µM): 1
relative viability (HCC-827; first compound 50 µM): 0.974
relative viability (HCC-827; first compound 158.11 µM): 0.47
relative viability (HCC-827; first compound 500 µM): 0.218
relative viability (HOP-62; first compound 5 µM): 1.07
relative viability (HOP-62; first compound 15.81 µM): 0.833
relative viability (HOP-62; first compound 50 µM): 0.916
relative viability (HOP-62; first compound 158.11 µM): 0.189
relative viability (HOP-62; first compound 500 µM): 0.246
relative viability (LU99A; first compound 5 µM): 0.535
relative viability (LU99A; first compound 15.81 µM): 0.51
relative viability (LU99A; first compound 50 µM): 0.461
relative viability (LU99A; first compound 158.11 µM): 0.227
relative viability (LU99A; first compound 500 µM): 0.0551
relative viability (NCI-H1355; first compound 5 µM): 0.834
relative viability (NCI-H1355; first compound 15.81 µM): 0.813
relative viability (NCI-H1355; first compound 50 µM): 0.918
relative viability (NCI-H1355; first compound 158.11 µM): 0.413
relative viability (NCI-H1355; first compound 500 µM): 0.134
relative viability (NCI-H1666; first compound 5 µM): 0.935
relative viability (NCI-H1666; first compound 15.81 µM): 0.896
relative viability (NCI-H1666; first compound 50 µM): 1.27
relative viability (NCI-H1666; first compound 158.11 µM): 0.158
relative viability (NCI-H1666; first compound 500 µM): 0.138
relative viability (NCI-H1792; first compound 5 µM): 0.675
relative viability (NCI-H1792; first compound 15.81 µM): 0.646
relative viability (NCI-H1792; first compound 50 µM): 0.71
relative viability (NCI-H1792; first compound 158.11 µM): 0.555
relative viability (NCI-H1792; first compound 500 µM): 0.709
relative viability (NCI-H1975; first compound 5 µM): 0.542
relative viability (NCI-H1975; first compound 15.81 µM): 0.655
relative viability (NCI-H1975; first compound 50 µM): 0.692
relative viability (NCI-H1975; first compound 158.11 µM): 0.327
relative viability (NCI-H1975; first compound 500 µM): 0.0528
relative viability (NCI-H2170; first compound 5 µM): 0.808
relative viability (NCI-H2170; first compound 15.81 µM): 0.766
relative viability (NCI-H2170; first compound 50 µM): 0.796
relative viability (NCI-H2170; first compound 158.11 µM): 0.547
relative viability (NCI-H2170; first compound 500 µM): 0.483
relative viability (NCI-H23; first compound 5 µM): 0.684
relative viability (NCI-H23; first compound 15.81 µM): 0.604
relative viability (NCI-H23; first compound 50 µM): 0.685
relative viability (NCI-H23; first compound 158.11 µM): 0.143
relative viability (NCI-H23; first compound 500 µM): 0.0565
relative viability (NCI-H2405; first compound 5 µM): 0.882
relative viability (NCI-H2405; first compound 15.81 µM): 0.78
relative viability (NCI-H2405; first compound 50 µM): 0.778
relative viability (NCI-H2405; first compound 158.11 µM): 0.772
relative viability (NCI-H2405; first compound 500 µM): 0.734
relative viability (NCI-H3122; first compound 5 µM): 0.638
relative viability (NCI-H3122; first compound 15.81 µM): 0.751
relative viability (NCI-H3122; first compound 50 µM): 0.715
relative viability (NCI-H3122; first compound 158.11 µM): 0.528
relative viability (NCI-H3122; first compound 500 µM): 0.0415
relative viability (NCI-H322M; first compound 5 µM): 0.746
relative viability (NCI-H322M; first compound 15.81 µM): 0.721
relative viability (NCI-H322M; first compound 50 µM): 0.729
relative viability (NCI-H322M; first compound 158.11 µM): 0.416
relative viability (NCI-H322M; first compound 500 µM): 0.757
relative viability (NCI-H358; first compound 5 µM): 0.851
relative viability (NCI-H358; first compound 15.81 µM): 0.742
relative viability (NCI-H358; first compound 50 µM): 0.912
relative viability (NCI-H358; first compound 158.11 µM): 0.261
relative viability (NCI-H358; first compound 500 µM): 0.0364
relative viability (NCI-H520; first compound 5 µM): 0.731
relative viability (NCI-H520; first compound 15.81 µM): 1.01
relative viability (NCI-H520; first compound 50 µM): 0.845
relative viability (NCI-H520; first compound 158.11 µM): 0.403
relative viability (NCI-H520; first compound 500 µM): 0.112
relative viability (NCI-H596; first compound 5 µM): 0.539
relative viability (NCI-H596; first compound 15.81 µM): 0.496
relative viability (NCI-H596; first compound 50 µM): 0.539
relative viability (NCI-H596; first compound 158.11 µM): 0.473
relative viability (NCI-H596; first compound 500 µM): 0.0181
relative viability (NCI-H647; first compound 5 µM): 1.19
relative viability (NCI-H647; first compound 15.81 µM): 0.968
relative viability (NCI-H647; first compound 50 µM): 0.769
relative viability (NCI-H647; first compound 158.11 µM): 0.0933
relative viability (NCI-H647; first compound 500 µM): 0.0159
relative viability (NCI-H727; first compound 5 µM): 0.531
relative viability (NCI-H727; first compound 15.81 µM): 0.558
relative viability (NCI-H727; first compound 50 µM): 0.662
relative viability (NCI-H727; first compound 158.11 µM): 0.226
relative viability (NCI-H727; first compound 500 µM): 0.0618
relative viability (NCI-H838; first compound 5 µM): 0.979
relative viability (NCI-H838; first compound 15.81 µM): 0.922
relative viability (NCI-H838; first compound 50 µM): 0.91
relative viability (NCI-H838; first compound 158.11 µM): 0.589
relative viability (NCI-H838; first compound 500 µM): 0.0842
relative viability (PC-14; first compound 5 µM): 0.97
relative viability (PC-14; first compound 15.81 µM): 0.884
relative viability (PC-14; first compound 50 µM): 0.849
relative viability (PC-14; first compound 158.11 µM): 1.01
relative viability (PC-14; first compound 500 µM): 0.863
relative viability (UMC-11; first compound 5 µM): 0.89
relative viability (UMC-11; first compound 15.81 µM): 0.964
relative viability (UMC-11; first compound 50 µM): 1.02
relative viability (UMC-11; first compound 158.11 µM): 0.398
relative viability (UMC-11; first compound 500 µM): 0.0725
